In article PMC10073293, “Discovery of IHMT-MST1-39 as a novel MST1 kinase inhibitor and AMPK activator for the treatment of diabetes mellitus” (Signal Transduction and Targeted Therapy, 2023):

How the values were obtained:
MST2 = biological target: T1, MST2 (Homo sapiens, UniProt Q13188); test: biochemical kinase assay; KD also determined (Fig. 1c, d); KINOMEscan binding
T1 construct: gene STK3
T1 sequence (Q13188 1-491): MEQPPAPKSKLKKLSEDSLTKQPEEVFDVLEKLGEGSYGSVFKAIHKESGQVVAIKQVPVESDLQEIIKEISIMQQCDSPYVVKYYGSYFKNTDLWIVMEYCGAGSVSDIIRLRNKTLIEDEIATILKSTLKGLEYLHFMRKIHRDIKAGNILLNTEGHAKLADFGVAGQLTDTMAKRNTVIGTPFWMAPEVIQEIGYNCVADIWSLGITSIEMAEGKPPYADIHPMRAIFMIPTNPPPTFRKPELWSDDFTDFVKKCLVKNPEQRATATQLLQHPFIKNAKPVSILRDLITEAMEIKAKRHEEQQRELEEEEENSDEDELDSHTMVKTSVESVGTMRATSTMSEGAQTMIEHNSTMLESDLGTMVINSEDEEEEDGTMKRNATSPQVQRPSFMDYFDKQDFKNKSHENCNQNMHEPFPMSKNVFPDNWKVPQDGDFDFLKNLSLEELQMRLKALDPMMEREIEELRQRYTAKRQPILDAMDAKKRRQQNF

[1] = biological target: T2, MST1 (mammalian sterile 20-like kinase 1) (Homo sapiens, UniProt Q13043)
T2 construct: gene STK4
T2 sequence (Q13043 whole entry): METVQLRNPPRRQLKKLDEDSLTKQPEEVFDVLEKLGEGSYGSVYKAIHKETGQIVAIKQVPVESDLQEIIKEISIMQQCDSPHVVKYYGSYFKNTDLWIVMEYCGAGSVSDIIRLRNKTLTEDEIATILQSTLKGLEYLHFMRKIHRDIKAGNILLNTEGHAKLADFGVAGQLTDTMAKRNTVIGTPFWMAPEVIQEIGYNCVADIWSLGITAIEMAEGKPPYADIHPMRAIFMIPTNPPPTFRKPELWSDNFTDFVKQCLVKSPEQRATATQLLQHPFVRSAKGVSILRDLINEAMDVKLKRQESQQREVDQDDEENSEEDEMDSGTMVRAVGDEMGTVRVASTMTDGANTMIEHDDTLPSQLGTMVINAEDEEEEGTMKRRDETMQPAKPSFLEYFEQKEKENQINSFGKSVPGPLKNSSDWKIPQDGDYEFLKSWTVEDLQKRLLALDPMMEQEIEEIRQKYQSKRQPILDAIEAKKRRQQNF

IC50 (MST2): 109 nM | IC50 [1]: 42 nM
SMILES: CN1C(=O)C(c2c(F)cccc2F)N(C)c2nc(Nc3ccc(S(N)(=O)=O)cc3)ncc21 (centres unmarked) [IHMT-MST1-39]
